From ChEMBL document CHEMBL1201862, “PubChem BioAssay data set” (2004) come the findings set out here.

The nature of series [1]: NIH3T3 cell viability loss – ATP luminescence, mouse fibroblasts, counter-screen, dose response (AID 2010).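 Further: cells exposed to compound for about 90 hours before reading.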 Format: functional, cell-based. (A counterscreen serves to expose hits that act by an unwanted route or on another target.)
Series [2] can be described thus: Trypanosoma cruzi growth suppression in host cells – NIH3T3 host cells, beta-gal luminescence, confirmation (AID 2044).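 Further: intracellular parasites grown in NIH/3T3 mouse fibroblasts as host cells; luminescent beta-galactosidase reporter signal from transgenic T. cruzi replicating inside host cells; inhibitors lower the luminescence signal.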 Type of series: functional, cell-based.
In series [3] the target is T1, Heat shock factor protein 1 (Mus musculus, UniProt P38532).
T1 sequence (P38532 whole entry): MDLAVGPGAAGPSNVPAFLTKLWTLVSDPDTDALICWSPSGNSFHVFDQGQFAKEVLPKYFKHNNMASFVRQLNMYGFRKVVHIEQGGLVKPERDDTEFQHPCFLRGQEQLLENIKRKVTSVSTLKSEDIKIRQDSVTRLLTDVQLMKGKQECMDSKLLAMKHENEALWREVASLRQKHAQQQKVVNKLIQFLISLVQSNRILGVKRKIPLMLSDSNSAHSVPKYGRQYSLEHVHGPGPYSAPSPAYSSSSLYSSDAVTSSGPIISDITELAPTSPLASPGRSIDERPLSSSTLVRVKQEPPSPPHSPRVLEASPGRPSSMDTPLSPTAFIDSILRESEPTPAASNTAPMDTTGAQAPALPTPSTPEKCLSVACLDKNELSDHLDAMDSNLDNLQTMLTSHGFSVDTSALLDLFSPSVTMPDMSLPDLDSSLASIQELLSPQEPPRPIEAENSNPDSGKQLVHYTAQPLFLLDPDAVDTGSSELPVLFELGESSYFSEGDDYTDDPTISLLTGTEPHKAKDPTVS
The series can be described thus: enhancement of HSF1-driven luciferase signal – cell-based, NIH3T3, luminescence, dose retest, confirmation (AID 435004).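 Further: stress induced by proteasome inhibitor MG132 added 30 min after compound; luciferase reporter driven by HSF1 response element in NIH3T3 cells; actives raise luminescence as potentiators of the MG132 stress response.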 Format: functional.

Series [4] has as its system Streptococcus sp. 'group A'. The series can be described thus: Streptococcus pyogenes SK(-)GAS viability under kanamycin – luminescence, BacTiterGlo, confirmation, counter-screen for streptokinase expression inhibitor project, dose response (AID 1900). Format: functional, organism-based.
For a further series, the system named is Streptococcus. The series can be described thus: GAS UMAA2166 growth inhibition – luminescence, BacTiterGlo, counter-screen for streptokinase expression inhibitor project, dose response (AID 1915).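 Further: potency for reduction of bacterial viability or growth.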 Type of series: functional, organism-based.
The target of a further series is Cytochrome P450 2C19 (Homo sapiens, UniProt P33261). The series can be described thus: Cytochrome panel assay with activity outcomes. Panel member name: p450-cyp2c19 Compounds with AC50 equal or less than 10 uM are considered active. Type of series: functional.
Series [5] has as its target T2, RNA-binding protein pos-1 (Caenorhabditis elegans, UniProt G5EF15).
T2 sequence (G5EF15 whole entry): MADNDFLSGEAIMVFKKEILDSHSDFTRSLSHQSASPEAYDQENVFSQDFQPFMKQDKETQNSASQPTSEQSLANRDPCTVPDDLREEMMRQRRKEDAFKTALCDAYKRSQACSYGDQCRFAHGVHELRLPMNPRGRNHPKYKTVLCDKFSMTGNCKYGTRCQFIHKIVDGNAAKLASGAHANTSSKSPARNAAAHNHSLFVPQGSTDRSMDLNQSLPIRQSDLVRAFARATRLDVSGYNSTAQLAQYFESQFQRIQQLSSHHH
The series can be described thus: disruptors of C. elegans POS-1 RNA interaction – biochemical, fluorescence polarization, dose response (AID 1964).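 Further: purified POS-1 fused to maltose binding protein made in E. coli; potency of compounds blocking POS-1 binding to fluorescent RNA.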 In general terms: Fluorescence polarisation rises when a labelled molecule tumbles more slowly, as on binding a larger partner.

Series [6] concerns the target T3, Zinc finger protein mex-5 (Caenorhabditis elegans, UniProt Q9XUB2).
T3 sequence (Q9XUB2 whole entry): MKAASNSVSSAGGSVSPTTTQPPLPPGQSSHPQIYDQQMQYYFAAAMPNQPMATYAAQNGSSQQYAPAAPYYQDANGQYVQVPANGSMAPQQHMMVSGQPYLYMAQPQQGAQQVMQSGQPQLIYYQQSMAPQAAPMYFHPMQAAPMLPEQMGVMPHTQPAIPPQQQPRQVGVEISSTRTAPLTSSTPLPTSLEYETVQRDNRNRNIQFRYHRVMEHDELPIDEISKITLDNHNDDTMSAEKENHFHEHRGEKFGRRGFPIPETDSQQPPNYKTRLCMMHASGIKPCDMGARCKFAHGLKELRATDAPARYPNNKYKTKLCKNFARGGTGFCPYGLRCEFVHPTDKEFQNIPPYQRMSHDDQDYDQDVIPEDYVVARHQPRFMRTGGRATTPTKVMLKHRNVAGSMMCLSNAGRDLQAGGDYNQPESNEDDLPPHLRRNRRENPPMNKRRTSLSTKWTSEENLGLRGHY
The series can be described thus: potency of MEX-5 RNA-binding blockers – biochemical, C. elegans, fluorescence polarization, dose response (AID 1960).

Series [7] deals with T4, Corticotropin-releasing factor receptor 2/Corticotropin-releasing factor-binding protein (Homo sapiens, UniProt P24387+Q13324).
T4 sequence (Q13324 whole entry): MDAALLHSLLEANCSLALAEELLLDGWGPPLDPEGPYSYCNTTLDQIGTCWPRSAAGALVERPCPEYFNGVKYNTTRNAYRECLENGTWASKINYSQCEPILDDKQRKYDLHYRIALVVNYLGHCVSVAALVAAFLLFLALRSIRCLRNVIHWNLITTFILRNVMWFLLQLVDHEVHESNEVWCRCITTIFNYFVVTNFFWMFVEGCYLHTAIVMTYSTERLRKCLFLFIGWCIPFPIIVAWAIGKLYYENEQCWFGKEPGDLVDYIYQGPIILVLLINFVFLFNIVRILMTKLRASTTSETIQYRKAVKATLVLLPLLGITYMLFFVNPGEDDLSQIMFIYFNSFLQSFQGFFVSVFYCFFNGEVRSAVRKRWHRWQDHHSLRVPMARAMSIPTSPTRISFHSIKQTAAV
T4 sequence (P24387 whole entry): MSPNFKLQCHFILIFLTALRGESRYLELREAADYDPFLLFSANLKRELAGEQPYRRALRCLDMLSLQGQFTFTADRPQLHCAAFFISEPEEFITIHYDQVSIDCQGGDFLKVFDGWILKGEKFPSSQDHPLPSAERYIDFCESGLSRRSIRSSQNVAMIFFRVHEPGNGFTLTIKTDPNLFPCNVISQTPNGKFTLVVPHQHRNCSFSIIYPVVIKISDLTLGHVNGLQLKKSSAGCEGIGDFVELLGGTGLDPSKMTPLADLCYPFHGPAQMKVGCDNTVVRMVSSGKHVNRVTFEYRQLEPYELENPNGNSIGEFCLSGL
The series can be described thus: activators of CRF receptor 2 with binding protein – uHTS hits, confirmation (AID 602473). Type of series: functional. The following applies: read-out: EC50_Mean.

The term AC50 denotes the concentration at which the activity in the assay is half-maximal.

The source made the active and inactive calls.

Cytochrome P450 2C19, sequence (P33261 whole entry): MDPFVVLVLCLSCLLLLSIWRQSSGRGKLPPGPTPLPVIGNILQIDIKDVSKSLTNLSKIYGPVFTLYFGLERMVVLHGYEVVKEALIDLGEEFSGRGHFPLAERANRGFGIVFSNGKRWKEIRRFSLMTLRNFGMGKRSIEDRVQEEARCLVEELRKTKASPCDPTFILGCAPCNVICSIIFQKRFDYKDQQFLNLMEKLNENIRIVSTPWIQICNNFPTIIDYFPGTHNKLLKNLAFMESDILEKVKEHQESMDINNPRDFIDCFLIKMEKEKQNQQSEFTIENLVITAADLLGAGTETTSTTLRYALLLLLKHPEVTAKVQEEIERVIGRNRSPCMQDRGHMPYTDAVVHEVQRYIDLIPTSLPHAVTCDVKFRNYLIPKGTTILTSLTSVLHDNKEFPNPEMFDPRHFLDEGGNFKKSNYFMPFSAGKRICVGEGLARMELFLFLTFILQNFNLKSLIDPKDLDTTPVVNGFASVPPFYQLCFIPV

Turning to `Cc1ccnc(SCC(=O)c2ccc(Br)cc2)c1C#N`, the results for the EC50 in series [1] and in [2] were > 30 µM (not active) and 932 nM (active), respectively. Regarding `CCCCOC(=O)CCc1c(C)n[nH]c1C`, in [3], the EC50 is > 260 µM (inactive). On to `CC1(C)S[C@@H]2[C@H](NC(=O)Cc3ccccc3)C(=O)N2[C@H]1C(=O)O` [PENICILLIN G], for which the results for the EC50 (in series [4]; with Streptococcus) were < 60 nM (active) and < 0.06 µM (active), respectively.

As to `Cn1c(CN2CCCC2)nc2cc(NC(=O)C3CCCCC3)ccc21`, on Cytochrome P450 2C19, the AC50 result was “inconclusive”.

Consider `COc1cc2oc3ccc(C#Cc4ccc(N)cc4)cc3c(=O)c2cc1OC`, for which the EC50 in [4] is 1180 nM (active); in the series on Streptococcus, 1.75 µM (active). As for `COc1ccc(NC(=O)C2CC(=O)N=C(Nc3cccc(C)c3)N2)cc1` (configuration not stated), the EC50 in series [3] was > 260 µM (inactive). Turning to `O=C(NC1CCCC1)C(c1ccncc1)N(Cc1ccccc1)C(=O)c1ccc(-c2ccccc2)[nH]1` (configuration not stated), the values for the EC50 in series [1] and in series [2] were > 60 µM (not active) and 253 nM (active), respectively. Turning to `Cc1ccccc1NC(=O)C1CCCN(C(=O)NCc2ccccc2)C1` (configuration not stated), the EC50 in [3] is > 260 µM (inactive). With `COc1ccc(/C=N/N=C2/CC(C)(C)Cc3nnc(O)cc32)cc1`, the figures for the EC50 in [5] and in series [6] were 41.4 µM (active) and 38.1 µM (active), respectively. Turning to `CCCCc1nnc(NC(=O)C(C)Sc2nc(C)cc(O)n2)s1` (configuration not stated), the EC50 in [3] is > 260 µM (inactive). As for `COc1ccc(C2C(C#N)=C(/N=C/N3CCN(C)CC3)OC3=C2C(=O)CC(C)(C)C3)cc1` (configuration not stated), the EC50 in [5] and in series [6] was > 300 µM (not active) throughout. Regarding `CCCC(Oc1ccc(Br)cc1)c1nc2c3cc(OC)c(OC)cc3nc(S)n2n1` (configuration not stated), the EC50 in series [4] is 253 nM (active); with Streptococcus, 3.62 µM (active). As to `O=C1C2ON(c3ccccc3)C(c3ccncc3)C2C(=O)N1c1ccccc1` (configuration not stated), the concentration at half-maximal activity (AC50) at Cytochrome P450 2C19 (read-out: AC50) is 0.0708 µM (inconclusive). The same measure, in the same setting: to `CN(C)c1ncc2nc(-c3ccccc3)c(=O)n(C3CC3)c2n1` belongs 39.8 µM (inconclusive). For the compound `CCSC1=N/C(=C\c2ccccc2)C(=O)N1`, the EC50 in series [5] and in series [6] was > 300 µM (not active) throughout. Turning to `CC1(OC(=O)CCc2ccccc2)C(=O)C=C2C=C(C3CC3)OC=C2C1=O` (configuration not stated), the EC50 in series [5] is 36.6 µM (active); in [6], 30.4 µM (active). On to `O=C(/C=C/c1ccc(Cl)cc1Cl)N(Cc1ccccc1)C1CCS(=O)(=O)C1` (configuration not stated), for which the EC50 in [3] is > 260 µM (inactive). For the compound `Cc1cc(C)cc(NC(=O)CN(C)S(=O)(=O)c2c[nH]cn2)c1`, the EC50 in series [3] is > 260 µM (inactive).

As for `COC(=O)CCN(C(=O)c1cc([N+](=O)[O-])cc([N+](=O)[O-])c1)c1ccccn1`, the values for the EC50 in series [1] and in [2] were > 30 µM (not active) and 1380 nM (active), respectively.

With `S=C1NC2(CCS1)Oc1ccccc1C1CC(c3ccccc3)=NN12` (configuration not stated), the EC50 in series [5] and in [6] was > 300 µM (not active) throughout. Regarding `O=S(=O)([N-]c1nc2ccccc2nc1-[n+]1ccc(CCCc2ccccc2)cc1)c1cccs1`, the EC50 was 35.4 µM (active) in series [5] and 34 µM (active) in series [6].

As for `O=C(NNc1cccc(Cl)n1)Nc1ccccc1Cl`, the AC50 on Cytochrome P450 2C19 (read-out: AC50) is 6.31 µM (inconclusive). As for `Clc1ccc(CCNc2nc3ccccc3n3nnnc23)cc1`, the EC50 in series [3] is > 260 µM (inactive). As for `CC(C)(C)NC(=O)c1ccc2c(c1)N(CC(=O)N1CCCCC1)C(=O)C(C)(C)O2`, the EC50 in [3] is > 260 µM (inactive). As for `COCCN1Cc2cccc(C(=O)Nc3cc(OC)ccc3OC)c2C1=O`, the EC50 in series [7] was > 53 µM (inactive). Regarding `CNNCc1ccc(C(=O)NC(C)C)cc1` [PROCARBAZINE], the AC50 on Cytochrome P450 2C19 (read-out: AC50) is 5.01 µM (inconclusive).

For `CC1=CC(C)(C)N(C(=O)CSc2nnc(N)s2)c2ccccc21`, in [7], the EC50 was > 53 µM (inactive). Turning to `Cc1ccc(OCCOCCN2CCCC2)c(Br)c1`, the EC50 was > 30 µM (not active) in series [1] and 960 nM (active) in series [2]. As to `CN1CCN(NC(=O)/C=C/c2ccc(Br)cc2)CC1`, in series [3], the EC50 is 32.3 µM (active).

For `COc1ccc2cc(/C(C)=N/NC(=S)Nc3cc(S(=O)(=O)N4CCOCC4)ccc3N3CCOCC3)ccc2c1`, the EC50 in [1] was > 60 µM (not active); in [2] it was 572 nM (active). On to `CCN(Cc1ccccc1)S(=O)(=O)c1cc(C(=O)NCC2CCCCC2)ccc1OC`, for which the EC50 in [3] is > 260 µM (inactive). For `O=C(CCN1C(=O)c2ccccc2C1=O)C1=NN[C@@H]2C(=O)N(c3ccc(F)cc3)C(=O)[C@H]12`, the EC50 in [3] was > 260 µM (inactive). As for `Cc1cccc(NC(=O)C(C)N2C(=O)C3C4CC(C(Br)C4Br)C3C2=O)c1` (configuration not stated), in series [7], the EC50 was 9.65 µM (active). On to `COc1ccc(-c2nn(-c3ccccc3)cc2CNC(=O)c2cccc([N+](=O)[O-])c2)cc1`, for which the EC50 in series [1] is > 60 µM (not active); in series [2], 1750 nM (active). `CCCc1nnc(SCC(=O)N2CCCCC2C)n1CC1CCCO1` (configuration not stated): the AC50 at Cytochrome P450 2C19 (read-out: AC50) was 25.1 µM (inconclusive).

On to `O=C(CN1CCN(c2cccc(Cl)c2)CC1)Nc1ccc([N+](=O)[O-])cc1C(=O)Nc1ccccc1F`, for which the EC50 in series [1] is > 60 µM (not active); in [2], 1010 nM (active). As to `COc1ccc(S(=O)(=O)N(C)CC(=O)N2CCC(C(N)=O)CC2)cc1Cl`, the EC50 in series [3] is > 260 µM (inactive). Still for that read-out and setting: to `O=C(NC1C2CC3CC(C2)CC1C3)C1CC1` (configuration not stated) belongs > 260 µM (inactive); to `COC(=O)c1cc(OC)c(OC)cc1N=C(S)N1CCCC1`, > 260 µM (inactive).

Take `Oc1nc2cc3c(cc2cc1C(c1nnnn1C1CCCC1)N1CCCc2ccccc21)OCCO3` (configuration not stated): the EC50 in series [7] is > 53 µM (inactive). Take `Cc1ccsc1C(=O)C1CCCN(Cc2cnc(N(C)C)s2)C1` (configuration not stated): the EC50 in series [1] is > 60 µM (not active); in series [2] it was 203 nM (active). The like results for `Cc1nc(NCCc2c[nH]cn2)c2oc3ccccc3c2n1` were, in that order, > 60 µM (not active) and 305 nM (active).

With `CCOC(=O)C1CCCN(C2CCN(Cc3nc(-c4ccccc4)no3)CC2)C1` (configuration not stated), the EC50 is > 60 µM (not active) in series [1] and 524 nM (active) in [2].
